Laboratory results as given in ChEMBL document CHEMBL6121044, “Discovery of Novel Spirocyclic MAT2A Inhibitors Demonstrating High In Vivo Efficacy in MTAP-Null Xenograft Models” (J Med Chem, 2025).

What was measured:
[1] = test system: HCT-116; test: In vivo antitumor activity against MTAP-deleted human HCT-116 cells xenografted mouse model assessed as tumor growth inhibition at 10 mg/kg, po qd measured after 18 days relative to control; assay type: functional; details: HCT-116, 432 h, time 18 day, read-out: TGI
[2] = test system: HCT-116; test: In vivo antitumor activity against MTAP-deleted human HCT-116 cells xenografted mouse model assessed as tumor growth inhibition at 30 mg/kg, po qd measured after 18 days relative to control; assay type: functional; details: HCT-116, 432 h, time 18 day, read-out: TGI
[3] = In vivo antitumor activity against MTAP-deleted human KP-4 cells xenografted mouse model assessed as tumor growth inhibition at 30 mg/kg, po qd measured after 18 days relative to control; assay type: functional; details: KP-4, 432 h, time 18 day, read-out: TGI
[4] = test system: KP-4; test: In vivo antitumor activity against human KP-4 cells xenografted mouse model assessed as tumor growth inhibition at 90 mg/kg, po qd measured after 18 days relative to control; assay type: functional; details: KP-4, 432 h, time 18 day, read-out: TGI
[5] = Volume of distribution at steady state in male ICR mouse at 2 mg/kg, iv measured upto 24 hrs by LC-MS/MS analysis; assay type: ADME, organism-based; details: in vivo, read-out: Vdss
[6] = test system: HCT-116; test: In vivo antitumor activity against MTAP-deleted human HCT-116 cells xenografted mouse model assessed as tumor growth inhibition at 1 mg/kg, po qd measured after 18 days relative to control; assay type: functional; details: HCT-116, 432 h, time 18 day, read-out: TGI
[7] = test system: HCT-116; test: In vivo antitumor activity against MTAP-deleted human HCT-116 cells xenografted mouse model assessed as tumor growth inhibition at 3 mg/kg, po qd measured after 18 days relative to control; assay type: functional; details: HCT-116, 432 h, time 18 day, read-out: TGI
[8] = In vivo antitumor activity against MTAP-deleted human KP-4 cells xenografted mouse model assessed as tumor growth inhibition at 10 mg/kg, po qd measured after 18 days relative to control; assay type: functional; details: KP-4, 432 h, time 18 day, read-out: TGI
[9] = In vivo antitumor activity against MTAP-deleted human NCI-H838 cells xenografted mouse model assessed as tumor growth inhibition at 3 mg/kg, po qd measured after 18 days relative to control; assay type: functional; details: NCI-H838, 432 h, time 18 day, read-out: TGI
[10] = In vivo antitumor activity against MTAP-deleted human NCI-H838 cells xenografted mouse model assessed as tumor growth inhibition at 10 mg/kg, po qd measured after 18 days relative to control; assay type: functional; details: NCI-H838, 432 h, time 18 day, read-out: TGI
[11] = Chronic toxicity in male ICR mouse assessed as body weight loss at 10 mg/kg, po once daily measured after 19 days relative to control; assay type: organism-based; details: in vivo, 456 h, time 19 day
[12] = Chronic toxicity in female ICR mouse assessed as body weight loss at 10 mg/kg, po once daily measured after 19 days relative to control; assay type: organism-based; details: in vivo, 456 h, time 19 day

Row | SMILES | inhibition in vivo at 10 mg/kg [1] [%] | inhibition in vivo at 30 mg/kg [2] [%] | inhibition in vivo at 30 mg/kg [3] [%] | inhibition in vivo at 90 mg/kg [4] [%] | Vd [5] [L/kg] | inhibition in vivo at 1 mg/kg [6] [%] | inhibition in vivo at 3 mg/kg [7] [%] | inhibition in vivo at 10 mg/kg [8] [%] | inhibition in vivo at 3 mg/kg [9] [%] | inhibition in vivo at 10 mg/kg [10] [%] | Activity [11] [%] | Activity [12] [%]
1 | [2H]C([2H])([2H])NC1=NC(=O)[C@]2(CCc3ncccc32)c2cc(C(C)(F)F)ccc21 | 72.1 | 85.4 | 62 | 74 | – | – | – | – | – | – | – | –
2 | [2H]C([2H])([2H])NC1=NC(=O)[C@]2(CCc3ncccc32)c2cc(C(F)(F)F)ccc21 | – | – | – | – | 1.7 | 61.9 | 85.9 | 80 | 61.5 | 78.1 | 9.77 | 2.36
